According to US10004751B2, “Compositions and methods for treating Dengue virus infection” (The J. David Gladstone Institutes, priority 2014, dated 2018):

System: DENV
Assay: DENV replication in Huh7 cells treated with ARFGAP1 inhibitor
Type: cell-based, Dengue virus
Details: DENV MOI of 0.5, increasing concentrations, 24 hours post-infection
Description: Human hepatoma Huh7 cells were infected with DENV (MOI of 0.5) and treated with increasing concentrations of QS 11. Viral RNA synthesis, DENV capsid protein levels, and infectious virion production were measured at 24 hours post-infection.

OC[C@H](Cc1ccccc1)Nc1nc(Oc2ccc3c(c2)CCC3)nc2c1ncn2Cc1ccc(-c2ccccc2)cc1 [QS 11]
Viral RNA synthesis (FIG. 6A): reduced viral RNA synthesis
DENV capsid protein levels (FIG. 6B): reduced
Infectious virion production (FIG. 6C): reduced
